For four molecules, IC50 results are on record in BindingDB's records for doi:10.1021/jm9705519 (National Institute On Drug Abuse-Intramural Research Program, 1998).

This assay concerns the target Sigma non-opioid intracellular receptor 1 (Cavia porcellus) (UniProt Q60492). The assay can be described thus: Binding affinity was evaluated using [3H]pentazocine binding to sigma-1 receptor from guinea pig brain.

Chain of Sigma non-opioid intracellular receptor 1 (Cavia porcellus) (Q60492 whole entry, looked up): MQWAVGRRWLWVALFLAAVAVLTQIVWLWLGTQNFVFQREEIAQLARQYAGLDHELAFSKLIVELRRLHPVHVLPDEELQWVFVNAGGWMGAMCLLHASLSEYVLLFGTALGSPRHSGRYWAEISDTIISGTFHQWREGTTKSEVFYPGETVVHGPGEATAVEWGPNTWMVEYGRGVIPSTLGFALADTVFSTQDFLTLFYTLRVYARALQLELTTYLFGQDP

The IC50 is the point on the concentration scale where inhibition reaches its midpoint. As for `C[C@H]1CN(CCCn2c3ccccc3c3ccccc32)C[C@H](C)N1C`, the IC50 worked out at 897 nM. For `CC1CN(CCCn2c3ccccc3c3ccccc32)CC(C)N1CCCN=C=S` (centres undefined) [9-{3-[4-(3-Isothiocyanato-propyl)-3,5-dimethyl-piperazin-1-yl]-propyl}-9H-carbazole], the IC50 was 1830 nM.

`CC1CN(CCCn2c3ccccc3c3ccccc32)CC(C)N1CCCCCCN=C=S` (centres undefined) [9-{3-[4-(6-Isothiocyanato-hexyl)-3,5-dimethyl-piperazin-1-yl]-propyl}-9H-carbazole] returned an IC50 of 707 nM. In turn, `CC1CN(CCCn2c3ccccc3c3ccccc32)CC(C)N1CCN=C=S` (centres undefined) [9-{3-[4-(2-Isothiocyanato-ethyl)-3,5-dimethyl-piperazin-1-yl]-propyl}-9H-carbazole] yielded a half-inhibitory concentration (IC50) of 949 nM.
